Measurements reported in patent US8637467B2, “Pharmaceutical being used for treating cancer and fibrosis disease and the composition and uses thereof” (Wuxi MTLH Biotechnology Co., Ltd., priority 2008, dated 2014).
pIC50: −log10 of the molar value. Where no end group is shown, it is not given here.

Key:
[1] = tested on: α-SMA mRNA; experiment: RT-PCR of α-SMA mRNA expression in HSC; type: cell-based, SD rat; conditions: after 48 hours, FIG. 4
Procedure: HSC from SD rats were separated using centrifuging on gradient created by Pronase-collagenase and Nycodenz. HSC cells at 1.5×10^5/cm2 was plated at 6-well plate, or culture dish (100 mm diameter). The culture medium is DMEM with 20% serum from newborn calf. The purity of HSC cells was determined using Vitamin A self-fluorescence and anti-Desmin immunocytochemistry experiments. Cell viability was determined using trypan blue staining. First generation HSC's purity and viability were 90% and 95% respectively. HSC can self-activate if grown in non-ECM condition, which means HSC can express α-SMA, and Vitamin A drop disappears. After cell fusion, activated HSC is released with trypsin, and propagate.
Use Trizol reagent to extract total RNA, then conduct two-step RT-PCR according to kit instructions.

[2] = tested on: BEL-7402; type: cell-based, Human; conditions: 72 h
Procedure: (§1) 2. Cell Lines • Human liver cancer cell line (SMMC-7721, BEL-7402, BEL-7402) were purchased from National Medical Academy of Sciences Tissue Bank and Chinese Academy of Sciences, Shanghai Cell line Research Institute.
(§2) 3. Cell Culture • All cell lines were incubated at 37C, 5% CO2 incubator with saturated humidity. Culture media was RPMI1640 media with 10% heat inactivated FBS, penicillin 100 u/ml, streptomycin 100 u/ml. After 48 hours media was changed. Cells were released with 0.25% trypsin and propagate. Cells used in the experiment were in log phase. Cell viability was determined using trypan blue staining.
(§3) 4. Methods • Take cells at log phase and release with 0.125% trypsin+0.01% EDTA and dilute cells to 2-4×10^4 cells/ml. Cells were placed in 96 well plate (180 ul/well), and were incubated at 37 C CO2 incubator for 24 hours. Media was changed, then peptide SEQ ID No:1 was added to the well (20 ul/well), incubate for 72 hours. Add MTT into 96 well plate (20 ul/well), and incubate for 4 hours. Media was removed, add DMSO (150 ul/well). The plate was shaken for 10 minutes. 7 concentration points (0.1 to 10 uM) was examined. Absorbance at 570 nm was measured for each well to calculate the IC50. IC50=(O.D. at well with no peptide−O.D. at well with peptide)/O.D. at well with no peptide

[3] = tested on: BEL-7404; type: cell-based, Human; conditions: 72 h
Procedure: as §1, §2, §3

[4] = tested on: SMMC-7721; type: cell-based, Human; conditions: 72 h
Procedure: as §1, §2, §3

[5] = tested on: liver cancer (H22); experiment: Xenograph liver cancer nude mice model (H22); type: in vivo; conditions: H22, 1 mg/kg
Procedure: Experimental animals: Female BALB/cA nude mice, age 35-40 days, weight 18-22 g, provided by Shanghai Silaike Experimental Animal Co. Ltd., certificate number: SOCK (Shanghai) 2007-0005.
(§4) The tumor of xenograph nude mice grew to 100˜300 mm^3. Tumor mice were divided into different groups for drug testing. In the experiment below, there were 12 nude mice in negative control group, and 6 nude mice in the group with tested drug. Tumor diameter was measured three times each week, and mice weight was measured at the same time.
T/C (relative tumor inhibition rate) % was calculated as below: • (1) tumor volume, TV, calculated as below: TV=½×a×b^2 • A and b are length and width. • (2) relative tumor volume, RTV, calculated as below: RTV=TVt/TV0. • TV0 ? is tumor volume at the beginning of drug use (d0), TVt is tumor volume at later time point. • (3) relative tumor inhibition rate T/C (%), calculate as below:
[formula] TRTV: treatment group RTV; CRTV: negative control RTV

[6] = Mice weight in xenograph tumor mice models; type: in vivo, BALB/cA nude mice; conditions: all the xenograph tumor mice models, different concentration
Procedure: as §4

[7] = tested on: human liver cancer cell BEL-7402; experiment: Migration of liver cancer cells through base membrane; type: cell-based
Procedure: Peptide SEQ ID No:1 from example 1 can inhibit human liver cancer cell BEL-7402 migration from base membrane, at 0.01, 0.1, or 1 mg/ml (12 hour incubation).

SKVTKKYHEVLQLRPKTGVRGLHKSLTDVALEHHEECDCVCRGSTGG-OH (cysteines drawn unpaired) [Peptide SEQ ID NO:1]
α-SMA mRNA expression (RT-PCR) [1]: inhibits α-SMA mRNA expression
pIC50 [2]: 5.75
pIC50 [3]: 5.63
pIC50 [4]: 5.90
inhibition rate, tumor [5]: 67.8%
weight of the mice [6]: not affected
migration from base membrane ([7]; BEL-7402, 0.01, 0.1, or 1 mg/ml, 12 hour incubation): can inhibit
cancer cell migration ability through base membrane ([7]; incubated with cancer cells for 12 hours, FIG. 7): inhibits cancer cell migration ability through base membrane
